# Test results reported in patent US10670605B2, “Cysteine reactive probes and uses thereof” (The Scripps Research Institute, priority 2015, dated 2020).
# Where a name gives a salt, the structure may show the parent alone.
# Columns and labels:
# Assay in all cases: isoTOP-ABPP of compound-treated primary human T cells
# Format in all cases: cell-based
# [1] = biological target: Cys residues in primary human T cells (Homo sapiens, UniProt P18583); details: SON C92 (P18583)
# [2] = biological target: T1, Cys residues in primary human T cells (Homo sapiens, UniProt Q15306); details: IRF4 C194 (Q15306)
# T1 sequence (Q15306 1-451): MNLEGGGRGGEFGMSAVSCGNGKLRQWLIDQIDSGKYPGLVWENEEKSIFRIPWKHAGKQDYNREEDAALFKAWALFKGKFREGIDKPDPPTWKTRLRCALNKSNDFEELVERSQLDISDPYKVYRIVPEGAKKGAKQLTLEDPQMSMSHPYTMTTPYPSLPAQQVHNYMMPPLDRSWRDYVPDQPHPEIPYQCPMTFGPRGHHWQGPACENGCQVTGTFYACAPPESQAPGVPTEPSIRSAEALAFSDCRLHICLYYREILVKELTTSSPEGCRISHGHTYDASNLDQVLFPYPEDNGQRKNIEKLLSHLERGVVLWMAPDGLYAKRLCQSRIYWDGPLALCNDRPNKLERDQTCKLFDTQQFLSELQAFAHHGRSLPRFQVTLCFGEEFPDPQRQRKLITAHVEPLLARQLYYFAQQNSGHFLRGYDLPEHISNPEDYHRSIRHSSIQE
# [3] = biological target: T2, Cys residues in primary human T cells (Homo sapiens, UniProt Q96GW9); details: MARS2 C425 (Q96GW9)
# T2 sequence (Q96GW9 30-593): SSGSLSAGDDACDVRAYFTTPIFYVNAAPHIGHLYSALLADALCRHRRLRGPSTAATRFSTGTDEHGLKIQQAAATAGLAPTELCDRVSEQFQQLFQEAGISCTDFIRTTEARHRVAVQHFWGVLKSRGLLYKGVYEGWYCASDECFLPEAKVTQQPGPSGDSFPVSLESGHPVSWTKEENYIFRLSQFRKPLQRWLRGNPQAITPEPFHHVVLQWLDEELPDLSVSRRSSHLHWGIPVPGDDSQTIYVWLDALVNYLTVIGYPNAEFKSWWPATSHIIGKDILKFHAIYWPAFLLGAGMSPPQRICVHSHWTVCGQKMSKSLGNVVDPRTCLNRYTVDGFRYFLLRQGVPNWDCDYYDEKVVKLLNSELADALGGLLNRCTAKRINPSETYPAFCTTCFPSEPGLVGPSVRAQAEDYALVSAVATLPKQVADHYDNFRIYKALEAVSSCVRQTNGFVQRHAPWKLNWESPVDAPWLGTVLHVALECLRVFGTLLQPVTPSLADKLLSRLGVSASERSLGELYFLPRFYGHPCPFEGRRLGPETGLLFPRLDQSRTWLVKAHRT
# [4] = biological target: T3, Cys residues in primary human T cells (Homo sapiens, UniProt Q9Y277)
# T3 sequence (Q9Y277 1-283): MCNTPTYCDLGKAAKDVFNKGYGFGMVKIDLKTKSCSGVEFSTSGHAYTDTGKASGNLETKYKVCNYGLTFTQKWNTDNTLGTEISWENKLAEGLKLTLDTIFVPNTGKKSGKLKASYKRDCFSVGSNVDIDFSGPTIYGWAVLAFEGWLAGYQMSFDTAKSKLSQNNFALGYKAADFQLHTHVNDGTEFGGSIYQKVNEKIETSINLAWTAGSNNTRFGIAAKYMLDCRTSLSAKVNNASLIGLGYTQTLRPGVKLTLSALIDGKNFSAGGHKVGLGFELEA
# [5] = biological target: T4, Cys residues in primary human T cells (Homo sapiens, UniProt Q9Y4W2); details: LAS1L C456 (Q9Y4W2)
# T4 sequence (Q9Y4W2 1-734): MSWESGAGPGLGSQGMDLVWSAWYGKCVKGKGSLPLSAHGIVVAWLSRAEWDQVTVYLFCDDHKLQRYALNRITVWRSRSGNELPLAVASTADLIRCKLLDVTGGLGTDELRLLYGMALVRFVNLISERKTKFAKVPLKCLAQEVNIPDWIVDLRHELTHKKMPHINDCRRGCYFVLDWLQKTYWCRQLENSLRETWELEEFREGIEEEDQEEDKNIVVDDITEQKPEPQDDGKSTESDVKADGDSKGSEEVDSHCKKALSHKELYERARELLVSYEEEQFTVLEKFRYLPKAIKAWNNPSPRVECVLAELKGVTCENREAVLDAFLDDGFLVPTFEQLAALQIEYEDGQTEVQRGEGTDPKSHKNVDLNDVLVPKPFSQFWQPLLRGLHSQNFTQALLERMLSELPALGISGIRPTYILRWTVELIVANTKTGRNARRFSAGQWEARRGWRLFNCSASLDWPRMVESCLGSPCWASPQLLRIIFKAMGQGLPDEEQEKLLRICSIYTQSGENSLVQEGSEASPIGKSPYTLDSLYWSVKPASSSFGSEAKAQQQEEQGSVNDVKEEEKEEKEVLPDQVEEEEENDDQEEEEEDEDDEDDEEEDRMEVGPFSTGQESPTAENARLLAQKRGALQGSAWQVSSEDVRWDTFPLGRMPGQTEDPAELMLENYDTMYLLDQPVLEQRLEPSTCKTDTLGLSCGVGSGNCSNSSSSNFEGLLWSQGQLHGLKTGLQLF
# Cys residues in primary human T cells (Homo sapiens, UniProt P18583), sequence (P18583 whole entry): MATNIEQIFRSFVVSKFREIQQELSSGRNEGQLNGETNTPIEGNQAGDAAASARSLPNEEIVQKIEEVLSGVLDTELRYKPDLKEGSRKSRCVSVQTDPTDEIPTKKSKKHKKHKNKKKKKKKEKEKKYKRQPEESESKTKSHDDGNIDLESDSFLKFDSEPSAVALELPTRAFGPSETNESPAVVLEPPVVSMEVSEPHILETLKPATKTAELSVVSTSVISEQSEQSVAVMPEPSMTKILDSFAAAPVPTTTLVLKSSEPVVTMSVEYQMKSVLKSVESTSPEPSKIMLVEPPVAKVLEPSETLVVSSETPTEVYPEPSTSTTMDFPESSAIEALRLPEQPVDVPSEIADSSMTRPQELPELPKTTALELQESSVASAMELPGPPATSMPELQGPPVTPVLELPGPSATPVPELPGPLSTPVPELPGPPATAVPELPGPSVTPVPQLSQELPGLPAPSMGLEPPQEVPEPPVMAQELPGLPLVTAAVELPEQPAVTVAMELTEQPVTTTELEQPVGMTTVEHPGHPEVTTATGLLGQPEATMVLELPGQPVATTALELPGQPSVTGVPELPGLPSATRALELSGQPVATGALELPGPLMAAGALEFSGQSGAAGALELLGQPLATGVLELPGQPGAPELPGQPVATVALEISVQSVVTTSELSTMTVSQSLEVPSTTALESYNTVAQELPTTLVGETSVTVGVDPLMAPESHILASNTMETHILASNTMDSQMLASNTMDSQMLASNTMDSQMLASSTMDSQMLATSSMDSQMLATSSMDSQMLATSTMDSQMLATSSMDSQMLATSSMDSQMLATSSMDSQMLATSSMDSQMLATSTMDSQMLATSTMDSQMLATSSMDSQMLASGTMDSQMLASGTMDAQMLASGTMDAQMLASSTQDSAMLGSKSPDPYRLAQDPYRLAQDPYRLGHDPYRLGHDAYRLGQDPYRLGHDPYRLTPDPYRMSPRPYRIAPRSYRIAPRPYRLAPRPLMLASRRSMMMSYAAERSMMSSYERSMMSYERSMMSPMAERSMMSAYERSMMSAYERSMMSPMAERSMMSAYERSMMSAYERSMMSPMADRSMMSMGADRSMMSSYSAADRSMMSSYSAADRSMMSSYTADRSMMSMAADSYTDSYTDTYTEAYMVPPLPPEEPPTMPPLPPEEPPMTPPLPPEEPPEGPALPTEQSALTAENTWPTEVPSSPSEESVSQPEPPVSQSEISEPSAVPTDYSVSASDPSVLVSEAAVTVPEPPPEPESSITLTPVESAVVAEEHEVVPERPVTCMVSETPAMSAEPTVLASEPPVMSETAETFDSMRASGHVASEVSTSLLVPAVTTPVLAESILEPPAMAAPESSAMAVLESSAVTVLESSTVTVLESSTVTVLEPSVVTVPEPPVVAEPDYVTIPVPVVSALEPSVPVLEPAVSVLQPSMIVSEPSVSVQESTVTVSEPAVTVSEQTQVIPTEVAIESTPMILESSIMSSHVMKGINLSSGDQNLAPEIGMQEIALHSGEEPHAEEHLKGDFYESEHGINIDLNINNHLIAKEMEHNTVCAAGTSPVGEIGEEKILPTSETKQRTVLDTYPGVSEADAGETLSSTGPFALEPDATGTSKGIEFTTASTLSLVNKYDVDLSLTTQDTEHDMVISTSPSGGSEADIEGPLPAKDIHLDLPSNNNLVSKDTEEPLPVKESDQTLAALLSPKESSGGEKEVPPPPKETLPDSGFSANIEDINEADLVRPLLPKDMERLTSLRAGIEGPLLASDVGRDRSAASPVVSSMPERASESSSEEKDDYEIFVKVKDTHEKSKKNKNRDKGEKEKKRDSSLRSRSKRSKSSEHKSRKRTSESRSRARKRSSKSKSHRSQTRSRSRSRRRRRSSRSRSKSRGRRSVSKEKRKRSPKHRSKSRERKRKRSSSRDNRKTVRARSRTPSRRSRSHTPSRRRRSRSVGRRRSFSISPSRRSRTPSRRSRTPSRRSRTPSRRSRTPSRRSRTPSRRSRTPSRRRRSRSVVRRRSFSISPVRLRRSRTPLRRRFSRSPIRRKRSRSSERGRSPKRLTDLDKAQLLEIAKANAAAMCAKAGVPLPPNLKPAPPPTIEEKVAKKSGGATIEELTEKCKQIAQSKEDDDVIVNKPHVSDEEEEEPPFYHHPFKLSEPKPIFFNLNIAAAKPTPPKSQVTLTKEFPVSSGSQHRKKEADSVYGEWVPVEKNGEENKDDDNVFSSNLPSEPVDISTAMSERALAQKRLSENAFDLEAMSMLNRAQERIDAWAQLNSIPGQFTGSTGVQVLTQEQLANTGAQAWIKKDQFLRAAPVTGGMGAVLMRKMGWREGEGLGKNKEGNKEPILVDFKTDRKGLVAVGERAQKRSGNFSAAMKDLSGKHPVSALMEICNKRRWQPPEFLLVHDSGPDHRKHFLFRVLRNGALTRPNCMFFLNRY
compound,measurement,setting,value
"COC(=O)/C=C/C(=O)OC [DMF, dimethyl fumarate]",R value (DMSO/DMF),[1]; DMF 50 μM 1h,2.5
same,R value (DMSO/DMF),[1]; DMF 50 μM 2h,6.31
same,R value (DMSO/DMF),[1]; DMF 50 μM 4h,4.17
same,R value (DMSO/DMF),[2]; DMF 10 μM 4h,1.69
same,R value (DMSO/DMF),[2]; DMF 25 μM 4h,1.78
same,R value (DMSO/DMF),[2]; DMF 50 μM 1h,1.32
same,R value (DMSO/DMF),[2]; DMF 50 μM 2h,3.13
same,R value (DMSO/DMF),[2]; DMF 50 μM 4h,5.25
same,R value (DMSO/DMF),[3]; DMF 10 μM 4h,1.84
same,R value (DMSO/DMF),[3]; DMF 25 μM 4h,2.86
same,R value (DMSO/DMF),[3]; DMF 50 μM 1h,2.23
same,R value (DMSO/DMF),[3]; DMF 50 μM 2h,4.16
same,R value (DMSO/DMF),[3]; DMF 50 μM 4h,5.3
same,R value (DMSO/DMF),"[4]; VDAC3 C36 (Q9Y277), DMF 50 μM 1h",3.21
same,R value (DMSO/DMF),"[4]; VDAC3 C36 (Q9Y277), DMF 50 μM 2h",3.98
same,R value (DMSO/DMF),"[4]; VDAC3 C36 (Q9Y277), DMF 50 μM 4h",4.11
same,R value (DMSO/DMF),"[4]; VDAC3 C65 (Q9Y277), DMF 10 μM 4h",1.73
same,R value (DMSO/DMF),"[4]; VDAC3 C65 (Q9Y277), DMF 25 μM 4h",5.64
same,R value (DMSO/DMF),"[4]; VDAC3 C65 (Q9Y277), DMF 50 μM 1h",3.35
same,R value (DMSO/DMF),"[4]; VDAC3 C65 (Q9Y277), DMF 50 μM 2h",7.53
same,R value (DMSO/DMF),"[4]; VDAC3 C65 (Q9Y277), DMF 50 μM 4h",15.94
same,R value (DMSO/DMF),[5]; DMF 10 μM 4h,1.29
same,R value (DMSO/DMF),[5]; DMF 50 μM 1h,1.8
same,R value (DMSO/DMF),[5]; DMF 50 μM 2h,3.42
same,R value (DMSO/DMF),[5]; DMF 50 μM 4h,5.61
